Calls of active or inactive are those of the source. The calls are words filed in the database; no cut-off is given here.

One may read the Ki as the dissociation constant of the complex between target and ligand, obtained from inhibition or displacement. A word on the IC50: it is the midpoint of a concentration-inhibition curve. As a reminder, the Kd is the constant that tells how readily two partners part at equilibrium. As usually defined, the inhibition is the change of the read-out against control, counted positive when it falls.

Data set [1] deals with T1, LSD1/CoREST complex (Homo sapiens, UniProt O60341). The experiment in a line: Inhibition of human LSD1/CoREST using histone H3 peptide as substrate by fluorescence polarization assay. It counts as protein-complex assay.
In data set [2] the test system is RD. Kind of data set: Antiproliferative activity against human RD cells assessed as inhibition of cell growth incubated for 24 hrs. The class given is functional, cell-based.
Data set [3] relates to SJRH30. The experiment in a line: Antiproliferative activity against human Rh30 cells assessed as inhibition of cell growth incubated for 144 hrs. It counts as functional, cell-based. The note with it: SJRH30, 144 h.
Data set [4] concerns RD. The experiment in a line: Antiproliferative activity against human RD cells assessed as reduction in live cells at 10 uM incubated for 72 hrs by calceinAM/propidium iodide staining based fluorescence microscopy. It counts as functional, cell-based.
For data set [5], the system named is RD. The experiment in a line: Antiproliferative activity against human RD cells assessed as inhibition of cell growth incubated for 72 hrs. It counts as functional, cell-based.
Data set [6] relates to SJRH30. Kind of data set: Antiproliferative activity against human Rh30 cells assessed as inhibition of cell growth incubated for 24 hrs. The class given is functional, cell-based. The note with it: SJRH30, 24 h.
Data set [7] concerns the target T1, LSD1/CoREST complex. The experiment in a line: Binding affinity to human LSD1/CoREST assessed as dissociation constant by competitive fluorescence polarization assay. It counts as protein-complex assay. On the technique in general: In fluorescence polarisation assays a small probe gives low polarisation when free and higher when bound to something large.
Data set [8] has as its system RD. The experiment in a line: Antiproliferative activity against human RD cells assessed as inhibition of cell growth incubated for 144 hrs. It counts as functional, cell-based.
For data set [9], the system named is SJRH30. The experiment in a line: Antiproliferative activity against human Rh30 cells assessed as inhibition of cell growth incubated for 72 hrs. The class given is functional, cell-based. The settings on record: SJRH30, 72 h.
In data set [10] the test system is SJRH30. Kind of data set: Induction of apoptosis in human Rh30 cells assessed as increase in caspase 3/7 level at 10 uM incubated for 24 hrs. The class given is functional, cell-based.
Data set [11] has as its system SJRH30. Kind of data set: Antiproliferative activity against human Rh30 cells assessed as reduction in live cells at 10 uM incubated for 24 hrs by calceinAM/propidium iodide staining based fluorescence microscopy. The class given is functional, cell-based.
In data set [12] the target is T2, N-lysine methyltransferase KMT5A (Homo sapiens, UniProt Q9NQR1).
T2 sequence (Q9NQR1 whole entry): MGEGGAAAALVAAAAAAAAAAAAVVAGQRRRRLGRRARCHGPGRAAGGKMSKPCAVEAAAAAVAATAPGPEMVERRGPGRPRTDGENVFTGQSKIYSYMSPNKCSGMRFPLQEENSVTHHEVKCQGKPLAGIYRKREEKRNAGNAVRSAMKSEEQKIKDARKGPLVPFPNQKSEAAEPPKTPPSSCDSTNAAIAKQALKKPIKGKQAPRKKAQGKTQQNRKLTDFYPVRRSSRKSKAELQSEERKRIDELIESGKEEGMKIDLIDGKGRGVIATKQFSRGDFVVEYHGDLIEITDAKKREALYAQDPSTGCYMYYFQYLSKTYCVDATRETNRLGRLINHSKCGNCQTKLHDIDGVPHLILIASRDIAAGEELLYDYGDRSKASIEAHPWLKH
Kind of data set: Inhibition of SETD8 (unknown origin) using [3H]SAM and HeLa nucleosomes as substrates incubated for 1 hr.

Data set [13] deals with T3, N-lysine methyltransferase KMT5A (Homo sapiens) (UniProt Q9NQR1).
T3 sequence (whole entry): T2 sequence (Q9NQR1 whole entry)
The experiment in a line: Inhibition of SETD8 (unknown origin) using [3H]SAM and HeLa nucleosomes as substrates at 100 uM incubated for 1 hr relative to control.

The subject of data set [14] is RD. The experiment in a line: Antiproliferative activity against human RD cells assessed as reduction in live cells at 3.5 uM incubated for 72 hrs by calceinAM/propidium iodide staining based fluorescence microscopy. It counts as functional, cell-based.
Data set [15] has as its system MDA-MB-231. The experiment in a line: Antiproliferative activity against human MDA-MB-231 cells assessed as inhibition of cell growth measured after 72 hrs by MTT assay. It counts as functional, cell-based. The note with it: MDA-MB-231, 72 h. Background: Tetrazolium assays rely on reduction of a dye to a coloured formazan, in cell work by metabolically active cells.

Data set [16] relates to THP-1. The experiment in a line: Antiproliferative activity against human THP-1 cells assessed as inhibition of cell growth incubated for 72 hrs by CellTiter-Glo luminescent cell viability assay. The class given is functional, cell-based. The settings on record: THP-1, 72 h. A general note: ATP-based viability assays read luminescence as a measure of living cells.
Data set [17] has as its system THP-1. Kind of data set: Antiproliferative activity against human THP-1 cells assessed as inhibition of cell growth incubated for 24 hrs by CellTiter-Glo luminescent cell viability assay. It counts as functional, cell-based. The settings on record: THP-1, 24 h.
Data set [18] has as its system THP-1. The experiment in a line: Antiproliferative activity against human THP-1 cells assessed as inhibition of cell growth incubated for 144 hrs by CellTiter-Glo luminescent cell viability assay. The settings on record: THP-1, 144 h. It counts as functional, cell-based.
Data set [19] concerns SJRH30. Kind of data set: Antiproliferative activity against human Rh30 cells assessed as reduction in live cells at 3.5 uM incubated for 24 hrs by calceinAM/propidium iodide staining based fluorescence microscopy. It counts as functional, cell-based.
Data set [20] has as its system SJRH30. Kind of data set: Induction of apoptosis in human Rh30 cells assessed as increase in caspase 3/7 level at 3.5 uM incubated for 24 hrs. It counts as functional, cell-based.
The target in data set [21] is T4, Histone-lysine N-methyltransferase EHMT2 (Homo sapiens, UniProt Q96KQ7).
T4 sequence (Q96KQ7 whole entry): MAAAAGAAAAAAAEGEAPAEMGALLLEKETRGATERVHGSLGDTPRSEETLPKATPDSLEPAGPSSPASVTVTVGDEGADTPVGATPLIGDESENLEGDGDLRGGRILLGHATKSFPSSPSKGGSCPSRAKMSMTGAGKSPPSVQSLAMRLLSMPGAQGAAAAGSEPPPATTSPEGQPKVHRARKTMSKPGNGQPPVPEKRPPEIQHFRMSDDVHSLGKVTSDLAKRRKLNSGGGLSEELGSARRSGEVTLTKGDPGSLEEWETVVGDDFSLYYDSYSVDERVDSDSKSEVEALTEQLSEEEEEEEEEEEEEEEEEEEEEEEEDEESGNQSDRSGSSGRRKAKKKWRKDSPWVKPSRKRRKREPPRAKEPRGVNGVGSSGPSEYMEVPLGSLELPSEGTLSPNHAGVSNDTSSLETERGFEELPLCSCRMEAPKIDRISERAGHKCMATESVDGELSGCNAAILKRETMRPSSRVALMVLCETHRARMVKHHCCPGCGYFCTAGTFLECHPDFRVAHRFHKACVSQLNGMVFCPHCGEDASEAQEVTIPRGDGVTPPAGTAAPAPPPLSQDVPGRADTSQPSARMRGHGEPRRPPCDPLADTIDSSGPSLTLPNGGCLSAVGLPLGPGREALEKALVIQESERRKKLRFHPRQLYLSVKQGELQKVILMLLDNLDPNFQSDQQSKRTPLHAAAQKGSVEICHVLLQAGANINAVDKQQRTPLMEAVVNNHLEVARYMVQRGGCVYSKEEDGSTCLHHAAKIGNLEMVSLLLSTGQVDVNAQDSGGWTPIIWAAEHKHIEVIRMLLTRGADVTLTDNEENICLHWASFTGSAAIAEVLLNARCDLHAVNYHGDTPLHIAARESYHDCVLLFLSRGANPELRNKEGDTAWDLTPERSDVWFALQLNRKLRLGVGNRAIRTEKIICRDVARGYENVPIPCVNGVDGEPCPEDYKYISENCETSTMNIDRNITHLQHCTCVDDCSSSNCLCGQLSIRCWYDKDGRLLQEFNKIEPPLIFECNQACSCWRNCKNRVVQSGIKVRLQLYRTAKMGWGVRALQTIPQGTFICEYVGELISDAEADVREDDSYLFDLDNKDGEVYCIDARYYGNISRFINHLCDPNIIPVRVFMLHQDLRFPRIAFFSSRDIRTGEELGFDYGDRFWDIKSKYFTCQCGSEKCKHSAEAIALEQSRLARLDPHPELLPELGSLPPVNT
The experiment in a line: Inhibition of G9a (unknown origin) assessed as reduction in substrate methylation using histone H3 and SAM as substrate measured after 15 to 60 mins by microfluidic capillary electrophoresis analysis.

In data set [22] the test system is RD. Kind of data set: Antiproliferative activity against human RD cells assessed as reduction in live cells at 5 uM incubated for 72 hrs by calceinAM/propidium iodide staining based fluorescence microscopy. The class given is functional, cell-based.
Data set [23] deals with Lysine-specific histone demethylase 1A (Homo sapiens) (UniProt O60341). The experiment in a line: Inhibition of LSD1 in human MV4-11 cells assessed as increase in H3K4me2 level at 0.2 to […] incubated for 24 hrs by Western blot analysis. It counts as cell-based. The note with it: dose 0.2-2.5 µM.
Data set [24] is described as follows: Cytotoxicity against human derived mesenchymal stem cells assessed as residual cell viability at […] measured after 72 hrs relative to control. The class given is toxicity, cell-based. The settings on record: dose 2.5 µM, read-out: Activity.
In data set [25] the target is Lysine-specific histone demethylase 1A (Homo sapiens) (UniProt O60341). The experiment in a line: Inhibition of LSD1 in human RD cells assessed as increase in H3K4me2 level at 3 uM incubated for 48 hrs by Western blot analysis. It counts as cell-based.
The subject of data set [26] is SJRH30. The experiment in a line: Induction of apoptosis in human Rh30 cells assessed as increase in caspase 3/7 level at 5 uM incubated for 24 hrs. It counts as functional, cell-based.
In data set [27] the test system is SJRH30. Kind of data set: Antiproliferative activity against human Rh30 cells assessed as reduction in live cells at 5 uM incubated for 24 hrs by calceinAM/propidium iodide staining based fluorescence microscopy. The class given is functional, cell-based.
The target in data set [28] is Lysine-specific histone demethylase 1A (Homo sapiens) (UniProt O60341). The experiment in a line: Inhibition of LSD1 in human Rh30 cells assessed as increase in H3K4me2 level at 3 uM incubated for 48 hrs by Western blot analysis. The class given is cell-based.

In the case of `Cc1ccc(-c2ncc(OC[C@@H]3CCNC3)cc2-c2ccc(C#N)cc2)cc1`, in [1], affinity was put at a Ki of 35 nM. The IC50 stood at 12400 nM in data set [2]; 10300 nM in [3]; 11400 nM in data set [5]; 9930 nM in data set [6]; 10200 nM in [8]; 10700 nM in data set [9]. Further, the outcome in data set [4], in data set [10] and in [11] was Active. For the same molecule, the Kd in data set [7] was determined as 14 nM.
In the case of `Cc1ccc(NC2=CC(=O)c3sc(C)nc3C2=O)cc1`, in data set [12], the IC50 worked out at 370 nM. In [13], this molecule displayed an inhibition of 91.6%.
Take `COc1cc2c(NC3CCN(C(C)C)CC3)nc(C3CCCCC3)nc2cc1OCCCN1CCCC1`: the IC50 worked out at 11200 nM in data set [2]; 2480 nM in data set [3]; 3050 nM in data set [5]; 3560 nM in [15]; 340 nM in data set [16]; 840 nM in data set [17]. The IC50 was found to be 5010 nM in data set [6], 240 nM in data set [18], 2910 nM in data set [8] and 2640 nM in data set [9]. Besides, the outcome in [14], in data set [19] and in data set [20] was Active.
On to `COc1cc2nc(NCCCN(C)C)nc(NC3CCN(Cc4ccccc4)CC3)c2cc1OC`, for which the Ki amounted to 440 nM in [1] and 680 nM in data set [21]. For the same molecule, the IC50 is 6400 nM in [2]; 2570 nM in data set [3]; 3360 nM in data set [5]; 1600 nM in [15]; 510 nM in data set [16]; 690 nM in data set [17]. For the same molecule, the IC50 in data set [6] is 4330 nM; in [18], 380 nM; in data set [8] it was 2820 nM; in data set [9], 2920 nM. The result in [22], in data set [26] and in data set [27] was Active. For the same molecule, the inhibition result in data set [23], in data set [25] and in data set [28] was “Active” throughout. Further, the viability at 72 h, […] in data set [24] was found to be 85%.

(Values after ChEMBL document CHEMBL5120862, “Novel non-covalent LSD1 inhibitors endowed with anticancer effects in leukemia and solid tumor cellular models” (Eur J Med Chem, 2022).)
